Earlier results in patent US20170051350A1, “METHOD AND SYSTEM TO PREDICT RESPONSE TO TREATMENTS FOR MENTAL DISORDERS” (Pathway Genomics Corporation, priority 2013, published 2017).
Like-named read-outs stand apart in the source and are kept apart here.

Legend:
CYP2D6 = settings: cited from earlier work
HTR2C = target: T1, HTR2C (Homo sapiens, UniProt P28335); settings: HTR2C rs3813929 T/C, T (outcome: reduced weight gain); cited from earlier work
T1 construct: endogenous in cells; host or cells: patients (in vivo)
T1 sequence (P28335 33-458): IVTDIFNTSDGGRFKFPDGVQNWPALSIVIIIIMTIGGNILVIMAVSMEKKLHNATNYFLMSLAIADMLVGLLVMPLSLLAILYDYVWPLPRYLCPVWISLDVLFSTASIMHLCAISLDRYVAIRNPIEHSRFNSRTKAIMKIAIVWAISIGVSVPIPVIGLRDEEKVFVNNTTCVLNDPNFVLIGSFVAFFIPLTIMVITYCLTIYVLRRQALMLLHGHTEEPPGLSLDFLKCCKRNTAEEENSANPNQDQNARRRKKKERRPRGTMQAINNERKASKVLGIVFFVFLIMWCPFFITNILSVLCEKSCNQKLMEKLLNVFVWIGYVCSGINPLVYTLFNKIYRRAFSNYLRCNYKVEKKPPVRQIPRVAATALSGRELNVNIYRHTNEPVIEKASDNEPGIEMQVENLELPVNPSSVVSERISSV

genes affecting efficacy = settings: cited from earlier work; for depression improvement (Category): BDNF rs61888800, full wording: Depression may improve more than average, source PMID 20435227 Suppl Table 3a
[1] = tested on: genes affecting adverse reactions; settings: source PMID 20435227 Suppl Table 3c, cited from earlier work
HLA genotypes = settings: cited from earlier work
[2] = CYP2D6 Intermediate Metabolizer

CN(C)CCC=C1c2ccccc2CCc2ccccc21 [Amitriptyline]
plasma concentrations (drug, or drug combined with its active metabolite) (CYP2D6; [2]): may have increased
risk of adverse effects (CYP2D6; [2]): increased risk
plasma concentrations (drug, or drug combined with its active metabolite) (CYP2D6; CYP2D6 Poor Metabolizer): increased plasma
risk of adverse effects (CYP2D6; CYP2D6 Poor Metabolizer): increased risk

CN1CC2c3ccccc3Oc3ccc(Cl)cc3C2C1 (stereo not drawn) [Asenapine]
risk of weight gain (HTR2C): Patient has decreased risk of weight gain if treated with atypical antipsychotics, including asenapine (PMID 19636338,

CNCCCN1c2ccccc2CCc2ccccc21 [Desipramine]
plasma concentrations (drug, or drug combined with its active metabolite) (CYP2D6; [2]): Patient may have increased plasma concentrations of desipramine at standard doses (PMID 9049581, PMID 3816019,
plasma concentrations (drug, or drug combined with its active metabolite) (CYP2D6; CYP2D6 Poor Metabolizer): Patient's genotype is associated with increased plasma concentrations of desipramine at standard doses (PMID
risk of adverse effects (CYP2D6; CYP2D6 Poor Metabolizer): 9049581, PMID 3816019, PMID 10895986), which may increase risk of adverse effects.
depression improvement (Category) (genes affecting efficacy): Depression may improve

CN(C)CCC=C1c2ccccc2COc2ccccc21 [Doxepin]
plasma concentrations (drug, or drug combined with its active metabolite) (CYP2D6; [2]): may have increased
risk of adverse effects (CYP2D6; [2]): may increase the risk
plasma concentrations (drug, or drug combined with its active metabolite) (CYP2D6; CYP2D6 Poor Metabolizer): increased
risk of adverse effects (CYP2D6; CYP2D6 Poor Metabolizer): may increase the risk
plasma concentrations (drug, or drug combined with its active metabolite) (CYP2D6; CYP2D6 Ultrarapid Metabolizer): Patient's genotype is associated with decreased plasma concentrations of doxepin. Consider alternative medications,

CNCC[C@H](Oc1cccc2ccccc12)c1cccs1 [Duloxetine]
plasma concentrations (drug, or drug combined with its active metabolite) (CYP2D6; [2]): Patient may have increased plasma concentrations of duloxetine at standard doses (PMID 17380590, 17713974).
plasma concentrations (drug, or drug combined with its active metabolite) (CYP2D6; CYP2D6 Poor Metabolizer): Patient may have increased plasma concentrations of duloxetine at standard doses (PMID 17380590, 17713974).

CNCCC(Oc1ccc(C(F)(F)F)cc1)c1ccccc1 (stereo not drawn) [Fluoxetine]
depression improvement (Category) (genes affecting efficacy): Depression may improve

O=C(CCCN1CCC(O)(c2ccc(Cl)cc2)CC1)c1ccc(F)cc1 [Haloperidol]
plasma concentrations (drug, or drug combined with its active metabolite) (CYP2D6; [2]): Patient may have increased plasma concentrations of haloperidol (PMID 12386646, 10519444, 10096261).
plasma concentrations of reduced haloperidol (CYP2D6; CYP2D6 Poor Metabolizer): fluphenazine, quetiapine, olanzapine or clozapine (PMID 21412232). Patient's genotype is associated with increased
risk of adverse effects (CYP2D6; CYP2D6 Poor Metabolizer): Patient has increased risk of extrapyramidal symptoms and other adverse effects. Consider reducing the dose or
risk of extrapyramidal symptoms (CYP2D6; CYP2D6 Ultrarapid metabolizer, in one study): In one study, individuals with this patient's CYP2D6 metabolizer status had a slightly increased risk of extrapyramidal

O=C1[C@@H]2[C@H]3CC[C@H](C3)[C@@H]2C(=O)N1C[C@@H]1CCCC[C@H]1CN1CCN(c2nsc3ccccc23)CC1 [Lurasidone]
risk of weight gain (HTR2C): Patient has decreased risk of weight gain if treated with atypical antipsychotics, including lurasidone (PMID 19636338,

CN1CCN2c3ncccc3Cc3ccccc3C2C1 (stereo not drawn) [Mirtazapine]
plasma concentrations (drug, or drug combined with its active metabolite) (CYP2D6; [2]): Patient may have increased plasma concentrations of mirtazapine, though it is unclear if increased plasma
plasma concentrations (drug, or drug combined with its active metabolite) (CYP2D6; CYP2D6 Poor Metabolizer): Patient may have increased plasma concentrations of mirtazapine at standard doses, though it is unclear if increased

CNCCC=C1c2ccccc2CCc2ccccc21 [Nortriptyline]
plasma concentrations (drug, or drug combined with its active metabolite) (CYP2D6; [2]): Patient's genotype is associated with increased plasma concentrations of nortriptyline at standard doses (PMID
plasma concentrations (drug, or drug combined with its active metabolite) (CYP2D6; CYP2D6 Poor Metabolizer): Patient's genotype is associated with increased plasma concentrations of nortriptyline at standard doses (PMID
plasma concentrations (drug, or drug combined with its active metabolite) (CYP2D6; CYP2D6 Ultrarapid Metabolizer): Patient's genotype is associated with decreased plasma concentrations of nortriptyline at standard doses (PMID
Escitalopram, Nortriptyline, response (Category) (genes affecting efficacy; NR3C1 rs10482633, full wording: Depression may not respond as well, source PMID 20435227 Suppl Table 3b): Depression may not respond

Cc1cc2c(s1)Nc1ccccc1N=C2N1CCN(C)CC1 [Olanzapine]
Olanzapine, weight gain (Category) ([1]; ADRB3 rs4994, ADRB3:Trp64Arg): Less likely to gain weight
Olanzapine, weight gain (Category) ([1]; GNB3 rs5443, GNB3:825C > T): More likely to gain weight
Olanzapine, weight gain (Category) ([1]; HTR2A rs6313, HTR2A:T102C): More likely to gain weight
Olanzapine, weight gain (Category) ([1]; HTR2C rs6318, HTR2C:Cys23Ser): More likely to gain weight
Olanzapine, weight gain (Category) ([1]; HTR2C rs518147, HTR2C: −697G/C): Less likely to gain weight

Cc1nc2n(c(=O)c1CCN1CCC(c3noc4cc(F)ccc34)CC1)CCCC2O (stereo not drawn) [Paliperidone]
risk of weight gain (HTR2C): Patient has decreased risk of weight gain if treated with atypical antipsychotics, including paliperidone (PMID

Fc1ccc([C@@H]2CCNC[C@H]2COc2ccc3c(c2)OCO3)cc1 [Paroxetine]
risk of adverse effects (CYP2D6; [2]): paroxetine, which may increase risk of sexual dysfunction (PMID 8880055, 12870705, 1531950).
risk of adverse effects (CYP2D6; CYP2D6 Poor Metabolizer): Patient may have increased risk of drug-drug interactions [PMID 16476833] and sexual dysfunction [PMID 12870705].

OCCN1CCN(CCCN2c3ccccc3Sc3ccc(Cl)cc32)CC1 [Perphenazine]
plasma concentrations (drug, or drug combined with its active metabolite) (CYP2D6; [2]): Patient's genotype is associated with increased plasma concentrations of perphenazine (PMID 17429316, 8612387),
plasma concentrations (drug, or drug combined with its active metabolite) (CYP2D6; CYP2D6 Poor Metabolizer): Patient's genotype is associated with increased plasma concentrations of perphenazine (PMID 17429316, 8612387,
risk of adverse effects (CYP2D6; CYP2D6 Poor Metabolizer): 8689810), which may increase risk of adverse effects (FDA approved perphenazine drug label, PMID 9333110,
plasma concentrations (drug, or drug combined with its active metabolite) (CYP2D6; CYP2D6 Ultrarapid Metabolizer): Patient's genotype is associated with decreased plasma concentrations of perphenazine.

OCCOCCN1CCN(C2=Nc3ccccc3Sc3ccccc32)CC1 [Quetiapine]
risk of weight gain (HTR2C): Patient has decreased risk of weight gain if treated with atypical antipsychotics, including quetiapine (PMID 19636338,

CC(CN(C)C)CN1c2ccccc2CCc2ccccc21 (stereo not drawn) [Trimipramine]
plasma concentrations (drug, or drug combined with its active metabolite) (CYP2D6; [2]): Patient's genotype is associated with increased plasma concentrations of trimipramine and desmethyltrimipramine
plasma concentrations (drug, or drug combined with its active metabolite) (CYP2D6; CYP2D6 Poor Metabolizer): Patient's genotype is associated with increased plasma concentrations of trimipramine and desmethyltrimipramine
risk of adverse effects (CYP2D6; CYP2D6 Poor Metabolizer): patient may be at increased risk of adverse effects, such as sedation (PMID 14646691).
plasma concentrations (drug, or drug combined with its active metabolite) (CYP2D6; CYP2D6 Ultrarapid Metabolizer): decreased
risk of therapeutic failure (CYP2D6; CYP2D6 Ultrarapid Metabolizer): increased risk

COc1ccc(C(CN(C)C)C2(O)CCCCC2)cc1 (stereo not drawn) [Venlafaxine]
risk of adverse effects (CYP2D6; [2]): 10233212, 10877013), which may increase risk of adverse effects (PMID 17803873). Consider alternative medications,
levels of the active metabolite, O-desmethylvenlafaxine, at standard doses (CYP2D6; CYP2D6 Poor Metabolizer): decreased
risk of adverse effects (CYP2D6; CYP2D6 Poor Metabolizer): 18214456, 19593180, 21288052); therefore, the patient may have an increased risk of adverse effects at standard
plasma levels of the active metabolite, O-desmethylvenlafaxine, at standard doses (CYP2D6; CYP2D6 Ultrarapid Metabolizer): Patient's genotype is associated with increased plasma levels of the active metabolite, O-desmethylvenlafaxine, and

O=C1Cc2cc(CCN3CCN(c4nsc5ccccc45)CC3)c(Cl)cc2N1 [Ziprasidone]
risk of weight gain (HTR2C): Patient has decreased risk of weight gain if treated with atypical antipsychotics, including ziprasidone (PMID

OCCN1CCN(CC/C=C2/c3ccccc3Sc3ccc(Cl)cc32)CC1 [Zuclopenthixol]
plasma concentrations (drug, or drug combined with its active metabolite) (CYP2D6; [2]): Patient may have increased plasma concentrations of zuclopenthixol (PMID 1927573, 8946657, 12107620, 8612387,
risk of adverse effects (CYP2D6; [2]): 20946203), which may increase risk of adverse effects (PMID 20175668, 12107620). Consider reducing the dose by
plasma concentrations (drug, or drug combined with its active metabolite) (CYP2D6; CYP2D6 Poor Metabolizer): Patient's genotype is associated with increased plasma concentrations of zuclopenthixol (PMID 1927573, 8946657,
risk of adverse effects (CYP2D6; CYP2D6 Poor Metabolizer): 12107620, 8612387, 20946203), which may increase risk of adverse effects (PMID 20175668, 12107620). Consider

Nc1nc(NC2CC2)c2ncn([C@H]3C=C[C@@H](CO)C3)c2n1 [abacavir]
hypersensitivity (HLA genotypes; HLA-B*5701): associated

Oc1ncnc2[nH]ncc12 [allopurinol]
drug eruption (HLA genotypes; HLA-Aw33, B17/Bw58): associated
severe cutaneous adverse reactions (HLA genotypes; HLA-B*5801): associated

Cc1c(N(C)CS(=O)(=O)[O-])c(=O)n(-c2ccccc2)n1C.[Na+] [dipyrone]
agranulocytosis (HLA genotypes; HLA-A24, B7, DQwI): associated

NNc1nncc2ccccc12 [hydralazine]
SLE (HLA genotypes; HLA-DR4): associated

c1ccc([C@H]2CN3CCSC3=N2)cc1 [levamisole]
agranulocytosis (HLA genotypes; HLA-B27): associated

CC(=O)/N=c1/sc(S(N)(=O)=O)nn1C [methazolamide]
SJS (HLA genotypes; HLA-B59): associated

CC(C)(S)[C@@H](N)C(=O)O [penicillamine]
toxicity (HLA genotypes; HLA-DR3): associated
